Measurements reported in patent US10138207B2, “Benzomorphan analogs and the use thereof” (priority 2012, dated 2018).

Columns and labels:
[1] = target: T1, human opioid receptor-like receptor (ORL-1) (Homo sapiens, UniProt P41146); experiment: ORL-1 receptor radioligand binding assay ([3H]-nociceptin); conditions: HEK-293 or CHO cells; bound in μM
T1 construct: host or cells: HEK-293
Method: Membranes from recombinant HEK-293 cells expressing the human opioid receptor-like receptor (ORL-1) (Perkin Elmer, Shelton, Conn.) are prepared by lysing cells in ice-cold hypotonic buffer (2.5 mM MgCl2, 50 mM HEPES, pH 7.4) (10 ml/10 cm dish) followed by homogenization with a tissue grinder/Teflon pestle. Membranes are collected by centrifugation at 30,000×g for 15 min at 4° C. and pellets resuspended in hypotonic buffer to a final concentration of 1-3 mg/ml. Protein concentrations are determined using the BioRad protein assay reagent with bovine serum albumen as standard. Aliquots of the ORL-1 receptor membranes are stored at −80° C.
Radioligand binding assays (screening and dose-displacement) use 0.1 nM [^3H]-nociceptin (Perkin Elmer, Shelton, Conn.; 87.7 Ci/mmole) with 12 μg membrane protein in a final volume of 500 μl binding buffer (10 mM MgCl2, 1 mM EDTA, 5% DMSO, 50 mM HEPES, pH 7.4). Non-specific binding is determined in the presence of […] unlabeled nociceptin (American Peptide Company). All reactions are performed in 96-deep well polypropylene plates for 1 h at room temperature. […] The data from screening and dose-displacement experiments are analyzed using Microsoft Excel and the curve fitting functions in GraphPad PRISM™, v. 3.0 or higher, respectively, or an in-house function for one-site competition curve-fitting.

μ-opioid receptor [2] = target: T2, μ-opioid receptor (Homo sapiens, UniProt P35372); experiment: μ-opioid receptor [35S]GTPγS functional assay, U-2 OS cells; format: biochemical; design: expressed in transfected cells; host or cells: U-2 OS; conditions: U-2 OS cells; for EC50: read-out: GTPγS μ EC50; for Emax: relative to DAMGO, read-out: GTPγS μ Emax
μ-opioid receptor [3] = target: T2, μ-opioid receptor; experiment: μ-opioid receptor radioligand dose-displacement binding assay ([3H]-diprenorphine); design: expressed in transfected cells; host or cells: HEK-293 or CHO; conditions: HEK-293 or CHO cells; read-out: Ki Opioid Receptor μ
Method: Radioligand dose-displacement binding assays for μ-opioid receptors used 0.3 nM [^3H]-diprenorphine (Perkin Elmer, Shelton, Conn.), with […] membrane protein/well in a final volume of 500 μl binding buffer (10 mM MgCl2, 1 mM EDTA, 5% DMSO, 50 mM HEPES, pH 7.4). Reactions were carried out in the absence or presence of increasing concentrations of unlabeled naloxone. All reactions were conducted in 96-deep well polypropylene plates for 2 hr at room temperature. […] The data were analyzed using the one-site competition curve fitting functions in GraphPad PRISM™ v. 3.0 or higher (San Diego, Calif.), or an in-house function for one-site competition curve-fitting.

μ-opioid receptor [4] = target: T2, μ-opioid receptor; experiment: μ-opioid receptor [35S]GTPγS functional assay, HEK-293 or CHO cells; conditions: for Emax: read-out: GTPγS μ Emax
κ opioid receptor [5] = target: T3, κ opioid receptor (Homo sapiens, UniProt P41145); experiment: κ-opioid receptor [35S]GTPγS functional assay, HEK-293 or CHO cells; format: biochemical; design: expressed in transfected cells; host or cells: U-2 OS (in-house membranes); conditions: HEK-293 or CHO cells; for EC50: bound in μM, read-out: GTPγS κ EC50; for Emax: relative to U69,593
κ opioid receptor [6] = target: T3, κ opioid receptor; experiment: κ-opioid receptor [35S]GTPγS functional assay, U-2 OS cells; format: biochemical; design: expressed in transfected cells; host or cells: U-2 OS (in-house membranes); conditions: U-2 OS cells; for EC50: bound in μM, read-out: GTPγS κ EC50; for Emax: relative to U69,593, read-out: GTPγS κ Emax
Method: Membranes from recombinant HEK-293 cells, CHO or U-2 OS cells expressing the recombinant human κ opioid receptor (κ) were prepared by lysing cells in ice cold hypotonic buffer (2.5 mM MgCl2, 50 mM HEPES, pH 7.4) (10 mL/10 cm dish) followed by homogenization with a tissue grinder/Teflon pestle. […] Membranes were collected by centrifugation at 30,000×g for 15 min at 4° C. and pellets were resuspended in hypotonic buffer to a final concentration of 1-3 mg/mL. Protein concentrations were determined using the BioRad protein assay reagent with bovine serum albumen as standard. Aliquots of κ receptor membranes were stored at −80° C.
Plates were incubated for 30 min at a temperature of about 25° C. with shaking.

κ opioid receptor [7] = target: T3, κ opioid receptor; experiment: biochemical; format: binding; design: expressed in transfected cells; host or cells: HEK 293 (in-house membrane prep); conditions: HEK-293 or CHO cells

T1 sequence (P41146 whole entry): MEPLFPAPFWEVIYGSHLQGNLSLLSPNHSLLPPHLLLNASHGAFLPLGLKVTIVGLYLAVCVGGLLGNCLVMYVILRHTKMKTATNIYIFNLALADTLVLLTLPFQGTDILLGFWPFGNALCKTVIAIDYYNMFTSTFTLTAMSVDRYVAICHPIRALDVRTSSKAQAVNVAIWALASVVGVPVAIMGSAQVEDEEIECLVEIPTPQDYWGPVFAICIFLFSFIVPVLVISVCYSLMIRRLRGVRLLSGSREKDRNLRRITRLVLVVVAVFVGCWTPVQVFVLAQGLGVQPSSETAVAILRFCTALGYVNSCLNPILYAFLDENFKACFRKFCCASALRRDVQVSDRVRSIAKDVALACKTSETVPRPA
T2 sequence (P35372 whole entry, species assumed): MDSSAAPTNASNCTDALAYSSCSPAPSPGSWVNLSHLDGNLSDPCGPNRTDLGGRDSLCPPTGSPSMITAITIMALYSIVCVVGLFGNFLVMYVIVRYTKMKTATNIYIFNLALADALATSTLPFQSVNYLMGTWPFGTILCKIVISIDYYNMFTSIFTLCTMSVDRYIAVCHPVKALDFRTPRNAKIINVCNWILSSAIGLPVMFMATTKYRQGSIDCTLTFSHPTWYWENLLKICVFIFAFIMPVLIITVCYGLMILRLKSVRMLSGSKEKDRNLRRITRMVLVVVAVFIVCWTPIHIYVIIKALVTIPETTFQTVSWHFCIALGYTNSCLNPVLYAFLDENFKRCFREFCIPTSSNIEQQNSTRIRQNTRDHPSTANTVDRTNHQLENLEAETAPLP
T3 sequence (P41145 whole entry): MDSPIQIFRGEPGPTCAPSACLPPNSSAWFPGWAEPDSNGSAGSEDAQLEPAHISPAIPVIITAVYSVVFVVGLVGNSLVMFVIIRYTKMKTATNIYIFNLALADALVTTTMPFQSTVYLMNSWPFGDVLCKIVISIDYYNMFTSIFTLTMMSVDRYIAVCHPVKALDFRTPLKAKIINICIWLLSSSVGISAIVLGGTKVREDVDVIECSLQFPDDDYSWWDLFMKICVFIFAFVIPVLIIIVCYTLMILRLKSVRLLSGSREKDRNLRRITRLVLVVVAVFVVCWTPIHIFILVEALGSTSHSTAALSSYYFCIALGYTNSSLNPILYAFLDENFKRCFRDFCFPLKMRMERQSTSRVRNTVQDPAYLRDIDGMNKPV

Row | Compound | Ki [1] | EC50 (μ-opioid receptor [2]) | Emax (μ-opioid receptor [2]) | Ki (μ-opioid receptor [3]) | EC50 (μ-opioid receptor [4]) | Emax (μ-opioid receptor [4]) | EC50 (κ opioid receptor [5]) | Emax (κ opioid receptor [5]) | EC50 (κ opioid receptor [6]) | Emax (κ opioid receptor [6]) | Ki (κ opioid receptor [7])
1 | CN1CC[C@@]2(C)c3cc(O)ccc3C[C@@H]1[C@@H]2NCCc1ccc(S(N)(=O)=O)cc1 [Compound 92, 4-(2-(((2R,6S,11R)-8-hydroxy-3,6-dimethyl-1,2,3,4,5,6-hexahydro-2,6-methanobenzo[d]azocin-11-yl)amino)ethyl)benzenesulfonamide] | > 20 µM | 0.149 ± 0.0255 µM | 97.3 ± 3.53% | 0.0545 ± 0.0173 µM | 0.0689 ± 0.016 µM | 100 ± 3.12% | > 20 µM | 3.5 ± 1.71% | > 20 µM | 1% | 0.163 ± 0.00383 µM
2 | CN1CC[C@]2(C)c3cc(O)ccc3C[C@H]1[C@H]2NCCc1ccc(S(N)(=O)=O)cc1 [Compound 93, 4-(2-(((2S,6R,11S)-8-hydroxy-3,6-dimethyl-1,2,3,4,5,6-hexahydro-2,6-methanobenzo[d]azocin-11-yl)amino)ethyl)benzenesulfonamide] | > 20 µM | 4.56 ± 0.743 µM | 80.7 ± 4.48% | 3.7 ± 0.0914 µM | 3.14 ± 0.79 µM | 92 ± 4.3% | – | – | > 20 µM | 2% | 5.35 ± 0.541 µM
3 | CN1CC[C@]2(C)c3cc(O)ccc3C[C@H]1[C@@H]2NCCc1ccc(S(N)(=O)=O)cc1 [Compound 95, 4-(2-(((2S,6R,11R)-8-hydroxy-3,6-dimethyl-1,2,3,4,5,6-hexahydro-2,6-methanobenzo[d]azocin-11-yl)amino)ethyl)benzenesulfonamide] | > 20 µM | 1.44 ± 0.0447 µM | 79.7 ± 8.41% | 1.76 ± 0.324 µM | 2.12 ± 0.204 µM | 78 ± 3.06% | – | – | > 20 µM | -1% | 4.6 ± 0.764 µM
4 | CN1CC[C@@]2(C)c3cc(O)ccc3C[C@@H]1[C@H]2NCCc1ccc(S(N)(=O)=O)cc1 [Compound 94, 4-(2-(((2R,6S,11S)-8-hydroxy-3,6-dimethyl-1,2,3,4,5,6-hexahydro-2,6-methanobenzo[d]azocin-11-yl)amino)ethyl)benzenesulfonamide] | > 20 µM | 0.0274 ± 0.0042 µM | 85.3 ± 5.93% | 0.0368 ± 0.0121 µM | 0.0408 ± 0.00276 µM | 85.3 ± 4.98% | > 20 µM | 4.6 ± 0.4% | > 20 µM | 0% | 0.0168 ± 0.00251 µM
